Results from ChEMBL document CHEMBL1150600, “Callyspongynic acid, a polyacetylenic acid which inhibits alpha-glucosidase, from the marine sponge Callyspongia truncata” (J Nat Prod, 2002).
Active and inactive are the calls of the source. The rule behind the calls is not given here.

Columns and labels:
[1] = test system: alpha-glucosidase (Saccharomyces cerevisiae); assay: Inhibition of alpha-glucosidase at 100 ug/ml after 30 mins
[2] = target: T1, Cytosolic beta-glucosidase (Homo sapiens) (UniProt Q9H227); assay: Inhibition of beta-glucosidase at 100 ug/ml
T1 sequence (whole entry): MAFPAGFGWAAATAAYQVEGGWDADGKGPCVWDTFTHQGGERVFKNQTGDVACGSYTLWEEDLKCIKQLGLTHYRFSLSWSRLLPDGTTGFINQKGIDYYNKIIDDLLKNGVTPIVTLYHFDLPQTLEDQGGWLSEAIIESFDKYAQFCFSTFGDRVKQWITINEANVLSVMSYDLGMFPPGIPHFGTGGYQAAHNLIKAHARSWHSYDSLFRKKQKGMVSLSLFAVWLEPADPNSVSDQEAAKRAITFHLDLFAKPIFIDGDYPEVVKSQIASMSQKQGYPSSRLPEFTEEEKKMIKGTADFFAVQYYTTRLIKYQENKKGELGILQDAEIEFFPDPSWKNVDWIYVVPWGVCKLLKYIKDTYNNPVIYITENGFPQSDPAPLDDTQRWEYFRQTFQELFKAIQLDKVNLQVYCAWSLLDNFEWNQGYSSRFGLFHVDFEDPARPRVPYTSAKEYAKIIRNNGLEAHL

[3] = target: T2, Beta-galactosidase (Homo sapiens) (UniProt P16278); assay: Inhibition of beta-galactosidase at 100 ug/ml
T2 sequence (whole entry): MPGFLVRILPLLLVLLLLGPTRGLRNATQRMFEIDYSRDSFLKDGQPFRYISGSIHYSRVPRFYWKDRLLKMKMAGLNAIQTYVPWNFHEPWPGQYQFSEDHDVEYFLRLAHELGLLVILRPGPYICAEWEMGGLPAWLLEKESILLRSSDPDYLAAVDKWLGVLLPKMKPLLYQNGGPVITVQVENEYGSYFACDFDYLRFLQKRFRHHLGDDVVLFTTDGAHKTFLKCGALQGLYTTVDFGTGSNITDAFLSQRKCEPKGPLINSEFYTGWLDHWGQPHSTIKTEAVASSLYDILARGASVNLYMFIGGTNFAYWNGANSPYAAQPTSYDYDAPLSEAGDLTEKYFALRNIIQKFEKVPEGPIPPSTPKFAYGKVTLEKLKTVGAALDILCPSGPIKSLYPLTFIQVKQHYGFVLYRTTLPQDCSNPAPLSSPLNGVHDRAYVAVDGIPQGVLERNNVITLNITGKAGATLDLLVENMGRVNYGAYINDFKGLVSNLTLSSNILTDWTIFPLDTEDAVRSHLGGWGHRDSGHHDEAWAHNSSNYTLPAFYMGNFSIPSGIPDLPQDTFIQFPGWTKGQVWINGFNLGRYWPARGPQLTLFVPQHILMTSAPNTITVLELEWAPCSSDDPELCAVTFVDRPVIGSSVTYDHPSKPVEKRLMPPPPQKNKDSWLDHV

[4] = Inhibition of trypsin at 100 ug/ml
[5] = target: Prothrombin (Homo sapiens) (UniProt P00734); assay: Inhibition of thrombin at 100 ug/ml

Row | Structure (SMILES) | Activity [1] | Activity [2] | Activity [3] | Activity [4] | Activity [5]
1 | C#C[C@@H](O)/C=C/CCCCCC#CC#CCCCC#CCCCC#CCCCCCC#CC(=O)OC | inactive |  |  |  | 
2 | C#C/C=C\CCCC#CC#CCCCCCC/C=C\C#C | inactive |  |  |  | 
3 | C#C[C@@H](O)/C=C/CCCCCC#CC#CCCCC#CCCCC#CCCCCCC#CC(=O)O |  | inactive | inactive | inactive | inactive
